Measured values from patent US20220324865A1 (Bayer Aktiengesellschaft, priority 2018, published 2022).

Molecular target: T1, human EP3 receptor (Homo sapiens, UniProt P43115)
T1 construct: expressed in transfected cells; host or cells: CHO K1 (Chinese Hamster Ovary), stably co-transfected with Galpha16 and mitochondrial clytin
T1 sequence (P43115 1-390): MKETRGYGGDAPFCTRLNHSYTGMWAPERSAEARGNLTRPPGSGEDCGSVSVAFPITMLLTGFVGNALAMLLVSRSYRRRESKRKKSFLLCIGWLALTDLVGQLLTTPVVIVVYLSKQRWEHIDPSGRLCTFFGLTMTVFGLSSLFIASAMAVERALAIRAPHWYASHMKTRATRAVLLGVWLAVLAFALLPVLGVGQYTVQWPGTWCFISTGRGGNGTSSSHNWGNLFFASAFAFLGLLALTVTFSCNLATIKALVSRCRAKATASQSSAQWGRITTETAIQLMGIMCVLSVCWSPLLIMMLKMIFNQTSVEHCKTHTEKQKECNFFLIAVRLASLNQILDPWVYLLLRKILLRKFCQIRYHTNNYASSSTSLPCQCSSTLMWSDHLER
Test: Cellular in vitro assay for determining EP3 receptor activity (human EP3 cell line, sulprostone-stimulated calcium luminescence)
Format: cell-based
Conditions: CHO cells expressing human EP3 and mitochondrial Clytin; antagonist mode, sulprostone at EC50; read-out: EP3 CHO mtCLY ANTAG IC50
In short: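 Antagonist activity was measured as inhibition of the luminescent calcium signal elicited by EC50 sulprostone, following 10 min compound pretreatment. The cell line was recombinant CHO K1 co-expressing human EP3, Gα16 and the photoprotein Clytin, reconstituted with coelenterazine.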

Q: With `Cc1ccc(-c2cn3nc(C(=O)NCCC(F)(F)F)c(C(F)(F)F)c3c(=O)[nH]2)cc1F` [6-148] as the compound, how does the IC50 read?
A: 8.4 nM

Q: For `COCc1c(C(=O)NC2(c3ccc(F)cc3)CN(C)C2)nn2cc(-c3ccc4c(c3)OCCO4)[nH]c(=O)c12` [6-628], which IC50 is on record?
A: 6.65 nM

Q: With `Cc1ccc(-c2cn3nc(C(=O)NCC(O)C(F)(F)F)c(C(F)(F)F)c3c(=O)[nH]2)cc1Cl` (single isomer, unassigned) [6-160] as the compound, how does the IC50 read?
A: 0.99 nM

Q: How did the IC50 turn out when `Cc1ccc(-c2cn3nc(C(=O)N[C@@H](c4ccc(F)cc4)C(C)(C)O)c(C)c3c(=O)[nH]2)nc1C` [6-634] was run?
A: 3.7 nM

Q: Which IC50 does the source give for `Cc1ccc(-c2cn3nc(C(=O)NC(C)(C)c4ccc(F)cc4)cc3c(=O)[nH]2)cc1C` [6-45] here?
A: 2.55 nM

Q: Which IC50 does the source give for `Cn1cnc2cc(-c3cn4nc(C(=O)N[C@@H](c5ccc(F)cc5)C(C)(C)O)c(C5CC5)c4c(=O)[nH]3)ccc21` [6-599] here?
A: 2.1 nM

Q: With `COc1ccc(CCNC(=O)c2cc3c(=O)[nH]c(-c4ccc(C)c(Cl)c4)cn3n2)cc1OC` [6-15] as the compound, how does the IC50 read?
A: 2.37 nM

Q: With `C[C@H](CO)NC(=O)c1nn2cc(-c3ccc4ccccc4c3)[nH]c(=O)c2c1C(F)(F)F` [6-525] as the compound, how does the IC50 read?
A: 7.8 nM

Q: `CCN(CCO)CC(NC(=O)c1nn2cc(-c3cnc4cccc(C)c4c3)[nH]c(=O)c2c1C(C)C)c1ccccc1` (stereo not shown) [Example 1-41, N-[2-[Ethyl(2-hydroxyethyl)amino]-1-phenylethyl]-3-isopropyl-6-(5-methyl-3-quinolyl)-4-oxo-5H-pyrazolo[1,5-a]pyrazine-2-carboxamide] was tested. Which IC50 did it give?
A: 3.7 nM

Q: `COc1ccc([C@@H](C)NC(=O)c2cc3c(=O)[nH]c(-c4ccc5c(c4F)OCCO5)c(F)n3n2)cn1` [Example 1-111, 7-Fluoro-6-(5-fluoro-2,3-dihydro-1,4-benzodioxin-6-yl)-N-[(1R)-1-(6-methoxypyridin-3-yl)ethyl]-4-oxo-4,5-dihydropyrazolo[1,5-a]pyrazine-2-carboxamide] was tested. Which IC50 did it give?
A: 8.8 nM

Q: Which IC50 does the source give for `CC(C)(O)[C@@H](NC(=O)c1nn2cc(-c3ccc(Cl)c(F)c3)[nH]c(=O)c2c1C(F)F)c1ccc(F)cc1` [6-632] here?
A: 6.3 nM

Q: Which IC50 does the source give for `CC(C)c1c(C(=O)N[C@@H](c2ccc(F)cc2)C(C)(C)O)nn2cc(-c3ccc(Cl)cc3)[nH]c(=O)c12` [6-672] here?
A: 1.7 nM

Q: Which IC50 does the source give for `O=C(N[C@H](CN1CCOCC1)c1ccc(F)cc1)c1cc2c(=O)[nH]c(-c3ccc4ccccc4c3)cn2n1` [6-67] here?
A: 1.58 nM

Q: For `CCCNC(=O)c1cc2c(=O)[nH]c(-c3ccc4cccc(F)c4c3)cn2n1` [6-40], which IC50 is on record?
A: 7.5 nM

Q: Which IC50 does the source give for `Cc1cc(-c2cn3nc(C(=O)NCC(N)C(F)(F)F)c(C4CC4)c3c(=O)[nH]2)ccc1C(F)(F)F` (racemic) [6-130] here?
A: 29.5 nM

Q: With `Cc1cccc2ncc(-c3cn4nc(C(=O)NC(CO)c5ccc(Br)cc5)c(C(C)C)c4c(=O)[nH]3)cc12` (stereo not shown) [Example 4-75, N-[1-(4-Bromophenyl)-2-hydroxyethyl]-3-isopropyl-6-(5-methyl-3-quinolyl)-4-oxo-5H-pyrazolo[1,5-a]pyrazine-2-carboxamide] as the compound, how does the IC50 read?
A: 1.25 nM

Q: How did the IC50 turn out when `Cc1ccc(-c2cn3nc(C(=O)NCC(N)C(F)(F)F)c(C4CC4)c3c(=O)[nH]2)cc1F` (single isomer, unassigned) [6-397] was run?
A: 3.45 nM

Q: How did the IC50 turn out when `Cc1ccc(-c2cn3nc(C(=O)NC4(c5ccc(F)cc5)CN(C)C4)c(C4CC4)c3c(=O)[nH]2)cc1C` [Example 1-36, 3-Cyclopropyl-6-(3,4-dimethylphenyl)-N-[3-(4-fluorophenyl)-1-methylazetidin-3-yl]-4-oxo-4,5-dihydropyrazolo[1,5-a]pyrazine-2-carboxamide] was run?
A: 2.19 nM

Q: How did the IC50 turn out when `Cc1cc(-c2cn3nc(C(=O)NC4(c5ccc(F)cc5)CN(CC(F)F)C4)c(C4CC4)c3c(=O)[nH]2)ccc1Cl` [6-340] was run?
A: 1.02 nM

Q: How did the IC50 turn out when `Cc1cc(-c2cn3nc(C(=O)NC(c4ccc(F)cc4)C(C)(C)O)c(C4CC4)c3c(=O)[nH]2)ccc1C(F)(F)F` (racemic) [6-133] was run?
A: 5.05 nM

Q: `COc1ccc(C2(NC(=O)c3cc4c(=O)[nH]c(-c5ccc6ccccc6c5)cn4n3)CN(C(=O)OC(C)(C)C)C2)cn1` [Example 1-6, tert.-Butyl 3-(6-methoxypyridin-3-yl)-3-({[6-(naphthalen-2-yl)-4-oxo-4,5-dihydropyrazolo[1,5-a]-pyrazin-2-yl]carbonyl}amino)azetidine-1-carboxylate] was tested. Which IC50 did it give?
A: 1.28 nM

Q: For `Cc1ccc(-c2cn3nc(C(=O)NCC(O)C(F)(F)F)c(C4CC4)c3c(=O)[nH]2)cc1C` (racemic) [6-435], which IC50 is on record?
A: 0.26 nM

Q: With `Cc1ccc(-c2cn3nc(C(=O)NC(C)C4CCC4)c(C4CC4)c3c(=O)[nH]2)cc1Cl` (stereo not shown) [6-279] as the compound, how does the IC50 read?
A: 0.49 nM

Q: How did the IC50 turn out when `Cc1ccc(-c2cn3nc(C(=O)NC4CCN(CC(F)F)C4)c(C4CC4)c3c(=O)[nH]2)cc1C` (stereo not shown) [6-453] was run?
A: 1.13 nM

Q: For `Cc1ccc(-c2cn3nc(C(=O)NCCN(CC(F)F)C4CC4)c(C4CC4)c3c(=O)[nH]2)cc1C` [6-460], which IC50 is on record?
A: 1.7 nM

Q: How did the IC50 turn out when `Cc1ccc(-c2cn3nc(C(=O)NCC(C)(N)C(F)(F)F)c(C(F)(F)F)c3c(=O)[nH]2)cc1Cl` (single isomer, unassigned) [6-170] was run?
A: 2.1 nM

Q: Which IC50 does the source give for `CCn1cc(CNC(=O)c2nn3cc(-c4ccc5ccccc5c4)[nH]c(=O)c3c2C(F)(F)F)c(C)n1` [6-496] here?
A: 1.2 nM

Q: With `Cc1cc(-c2cn3nc(C(=O)NC(CO)c4ccc(F)cc4)c(C4CC4)c3c(=O)[nH]2)ccc1C(F)(F)F` (racemic) [6-129] as the compound, how does the IC50 read?
A: 5.45 nM

Q: Which IC50 does the source give for `Cc1cc(-c2cn3nc(C(=O)NC(c4ccc(F)cc4)C4(O)CC4)c(C4CC4)c3c(=O)[nH]2)ccc1F` (single isomer, unassigned) [6-652] here?
A: 10 nM

Q: Which IC50 does the source give for `Cc1ccc(-c2cn3nc(C(=O)NCCN(CC(F)F)C4CC4)c(C4CC4)c3c(=O)[nH]2)cc1F` [6-379] here?
A: 1.8 nM

Q: For `COc1ccc(C(CCO)NC(=O)c2cc3c(=O)[nH]c(-c4ccc(C)c(C)c4)cn3n2)cc1` (racemic) [Example 1-11, rac-6-(3,4-Dimethylphenyl)-N-[3-hydroxy-1-(4-methoxyphenyl)propyl]-4-oxo-5H-pyrazolo[1,5-a]-pyrazine-2-carboxamide], which IC50 is on record?
A: 2.15 nM

Q: `Cc1ccc(-c2cn3nc(C(=O)N[C@@]4(C)CCS(=O)(=O)C4)c(C4CC4)c3c(=O)[nH]2)cc1F` (racemic) [6-376] was tested. Which IC50 did it give?
A: 5.07 nM

Q: With `Cc1ccc(-c2cn3nc(C(=O)N[C@H](C)C(C)(C)C)c(C(F)(F)F)c3c(=O)[nH]2)cc1Cl` [6-192] as the compound, how does the IC50 read?
A: 3.03 nM

Q: Which IC50 does the source give for `COc1ccc(C(CCO)NC(=O)c2cc3c(=O)[nH]c(-c4ccc5ccccc5c4)cn3n2)cc1` (stereo not shown) [Example 2-2, N-[3-Hydroxy-1-(4-methoxyphenyl)propyl]-6-(2-naphthyl)-4-oxo-4,5-dihydropyrazolo[1,5-a]pyrazine-2-carboxamide] here?
A: 1.18 nM

Q: With `Cc1cccc2ncc(-c3cn4nc(C(=O)N[C@@H]5CCCc6ccccc65)c(C(C)C)c4c(=O)[nH]3)cc12` [Example 4-5, 6-(5-Methylquinolin-3-yl)-4-oxo-3-(propan-2-yl)-N-[(7R)-1,2,3,4-tetrahydronaphthalen-1-yl]-4,5-dihydropyrazolo[1,5-a]pyrazine-2-carboxamide] as the compound, how does the IC50 read?
A: 7.7 nM

Q: How did the IC50 turn out when `Cc1cccc2ncc(-c3cn4nc(C(=O)NCc5ccc(CN6CCCC6)cc5)c(C(C)C)c4c(=O)[nH]3)cc12` [Example 4-48, 6-(5-Methylquinolin-3-yl)-4-oxo-3-(propan-2-yl)-N-({4-[(pyrrolidin-1-yl)methyl]phenyl}methyl)-4,5-dihydropyrazolo[1,5-a]pyrazine-2-carboxamide] was run?
A: 4.75 nM

Q: How did the IC50 turn out when `Cc1ccc(-c2cn3nc(C(=O)N[C@@H](C)C(C)C)c(C4CC4)c3c(=O)[nH]2)cc1Cl` [6-252] was run?
A: 0.84 nM

Q: Which IC50 does the source give for `Cc1ccc(-c2cn3nc(C(=O)N[C@@H](C4CC4)C(C)(C)O)c(C4CC4)c3c(=O)[nH]2)cc1Cl` [6-275] here?
A: 2.85 nM

Q: `O=C(N[C@H](CO)c1ccccc1)c1nn2cc(-c3ccc4ccccc4c3)[nH]c(=O)c2c1C(F)(F)F` [Example 1-77, N-[(1S)-2-Hydroxy-1-phenylethyl]-6-(naphthalen-2-yl)-4-oxo-3-(trifluoromethyl)-4,5-dihydropyrazolo[1,5-a]pyrazine-2-carboxamide] was tested. Which IC50 did it give?
A: 1.18 nM

Q: With `Cc1ccc(-c2cn3nc(C(=O)N[C@@H](C)C4CC4)c(C4CC4)c3c(=O)[nH]2)cc1Cl` [6-254] as the compound, how does the IC50 read?
A: 2.3 nM

Q: How did the IC50 turn out when `COc1cc(-c2cn3nc(C(=O)N[C@@H](C)C4CC4)c(C4CC4)c3c(=O)[nH]2)ccc1Cl` [6-481] was run?
A: 0.57 nM

Q: How did the IC50 turn out when `COC[C@@H](NC(=O)c1nn2cc(-c3ccc4ccccc4c3)[nH]c(=O)c2c1C#N)c1ccccc1` [Example 1-60, 3-Cyano-N-[(1S)-2-methoxy-1-phenylethyl]-6-(naphthalen-2-yl)-4-oxo-4,5-dihydropyrazolo[1,5-a]-pyrazine-2-carboxamide] was run?
A: 2.7 nM

Q: For `O=C(NC(CO)c1cc(Cl)cc(Cl)c1)c1cc2c(=O)[nH]c(-c3ccc4ccccc4c3)cn2n1` (stereo not shown) [Example 2-26, N-[1-(3,5-Dichlorophenyl)-2-hydroxyethyl]-6-(2-naphthyl)-4-oxo-4,5-dihydropyrazolo[1,5-a]pyrazine-2-carboxamide], which IC50 is on record?
A: 2.65 nM

Q: `Cc1cccc2ncc(-c3cn4nc(C(=O)NC(C)(C)c5cc(Cl)cc(Cl)c5)c(C(C)C)c4c(=O)[nH]3)cc12` [Example 4-8, N-[2-(3,5-Dichlorophenyl)propan-2-yl]-6-(5-methylquinolin-3-yl)-4-oxo-3-(propan-2-yl)-4,5-dihydropyrazolo[1,5-a]pyrazine-2-carboxamide] was tested. Which IC50 did it give?
A: 4.3 nM

Q: For `Cc1ccc(-c2cn3nc(C(=O)NC[C@]4(C5CC5)NC(=O)NC4=O)c(C4CC4)c3c(=O)[nH]2)cc1C` [6-457], which IC50 is on record?
A: 4.65 nM

Q: How did the IC50 turn out when `C[C@H](NC(=O)c1cc2c(=O)[nH]c(-c3ccc4ccccc4c3)cn2n1)c1cccc2ccccc12` [Example 2-6] was run?
A: 8.75 nM
